Experimental data taken from the supplement of paper PMC10307832.

What was measured:
Test in all cases: relative viability (nuclei count vs DMSO), 5 days (fraction); higher = more cells survive
[1] = compound: NCC(=O)Nc1ccc(-n2nc(C(F)(F)F)cc2-c2ccc3c(ccc4ccccc43)c2)cc1 + CC(C)C[C@H](NC(=O)[C@H](Cc1ccccc1)NC(=O)c1cnccn1)B(O)O [Bortezomib] (partner 0.002 µM)
Procedure, shortened: (§1)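 Medians of duplicate plates are given as relative viability. That measure is the nuclei count in treated wells divided by the count in vehicle wells. Counts were taken on 4× images of lung cancer cell lines in 1536-well plates, 5 days after pin-tool dosing the day after seeding with one drug alone or a fixed anchor-drug dose plus five library-drug doses (not always all listed) in √10 steps.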

[2] = compound: NCC(=O)Nc1ccc(-n2nc(C(F)(F)F)cc2-c2ccc3c(ccc4ccccc43)c2)cc1 + N=C(N)NC(=N)NCCc1ccccc1 [Phenformin] (partner 250 µM)
Procedure, shortened: as §1

kb NB 142-70 + OSI-027 = compound: C1CSC2=C(C(=O)N1)SC3=C2C=C(C=C3)O [kb NB 142-70] + COc1cccc2cc(-c3nc([C@H]4CC[C@H](C(=O)O)CC4)n4ncnc(N)c34)[nH]c12 [OSI-027] (partner 0.5 µM)
Procedure, shortened: as §1

kb NB 142-70 + Dasatinib = compound: C1CSC2=C(C(=O)N1)SC3=C2C=C(C=C3)O [kb NB 142-70] + Cc1nc(Nc2ncc(C(=O)Nc3c(C)cccc3Cl)s2)cc(N2CCN(CCO)CC2)n1 [Dasatinib] (partner 0.075 µM)
Procedure, shortened: as §1

[3] = compound: C1CSC2=C(C(=O)N1)SC3=C2C=C(C=C3)O [kb NB 142-70] + Cc1cc(Nc2cc(N3CCN(C)CC3)nc(Sc3ccc(NC(=O)C4CC4)cc3)n2)n[nH]1 [Tozasertib] (partner 0.1 µM)
Procedure, shortened: as §1

UMC-11
relative viability ([1]; first compound 0.02 µM): 0.831 | relative viability ([1]; first compound 0.06325 µM): 0.762 | relative viability ([1]; first compound 0.2 µM): 0.693 | relative viability ([1]; first compound 0.6325 µM): 0.658 | relative viability ([1]; first compound 2 µM): 0.674 | relative viability ([2]; first compound 0.02 µM): 0.292 | relative viability ([2]; first compound 0.06325 µM): 0.337 | relative viability ([2]; first compound 0.2 µM): 0.334 | relative viability ([2]; first compound 0.6325 µM): 0.319 | relative viability ([2]; first compound 2 µM): 0.335 | relative viability (kb NB 142-70 + OSI-027; first compound 0.1 µM): 0.463 | relative viability (kb NB 142-70 + OSI-027; first compound 1 µM): 0.468 | relative viability (kb NB 142-70 + OSI-027; first compound 3.162 µM): 0.298 | relative viability (kb NB 142-70 + Dasatinib; first compound 0.1 µM): 0.438 | relative viability (kb NB 142-70 + Dasatinib; first compound 1 µM): 0.464 | relative viability (kb NB 142-70 + Dasatinib; first compound 3.162 µM): 0.318 | relative viability ([3]; first compound 0.1 µM): 0.217 | relative viability ([3]; first compound 1 µM): 0.179 | relative viability ([3]; first compound 3.162 µM): 0.18
